How the values were obtained:
Format in all cases: physicochemical
[1] = Aerodynamic particle size distribution (USP23 Apparatus 1, multistage cascade impactor); conditions: for Mass Median Aerodynamic Diameter: 0.05% FK506 aerosol composition
Procedure: Aerodynamic Particle Size Distribution According to the conventional method in USP23 (Apparatus 1), the aerodynamic particle size distribution was assessed from FK506 amount in each stage after applying one mg FK506 to multistage cascade impactor by firing FK506 aerosol composition. FK506 measurement was conducted by HPLC method and the MMAD was calculated from the particle size distribution. The FK506 aerosol compositions were prepared according to a similar manner to that of the below-mentioned Example 2.

[2] = Dissolution test of mist particles (JP12 paddle method); conditions: for T 50% (dissolution rate of FK506): distilled water 37° C., paddle 50 rpm
Procedure: Dissolution Test FK506 dissolution from the mist particles after firing FK506 aerosol composition was examined in distilled water at 37° C. using the paddle method at 50 rpm, according to the dissolution test method in JP12. The emitted dose from aerosol composition was adjusted to be one mg FK506 as a total in the test fluid. FK506 was measured by HPLC method. The FK506 aerosol compositions were prepared according to a similar manner to that of Example 2.

[3] = Effect of MCT content on the solubility of FK506 in HFAs; set-up: key to Solubility of FK506 in HFAs (solution or suspension): ∘: solution; —: suspension
Procedure: The addition of MCT enables the filling of FK506 as a solution into aerosol system. As a result, the change of spray performance will not be caused by aggregation of FK506 crystalline particles and the emitted dose uniformity of FK506 can be more reliable. The aerosol compositions used in this study were prepared according to a similar manner to that of Example 2.

C=CC[C@@H]1/C=C(\C)C[C@H](C)C[C@H](OC)[C@H]2O[C@@](O)(C(=O)C(=O)N3CCCC[C@H]3C(=O)O[C@H](/C(C)=C/[C@@H]3CC[C@@H](O)[C@H](OC)C3)[C@H](C)[C@@H](O)CC1=O)[C@H](C)C[C@@H]2OC [FK506, 17-allyl-1,14-dihydroxy-12-[2-(4-hydroxy-3-methoxycyclohexyl)-1-methylvinyl]-23,25-dimethoxy-13,19,21,27-tetramethyl-11,28-dioxa-4-azatricyclo-[22.3.1.0^4,9]octacos-18-ene-2,3,10,16-tetraone]
Mass Median Aerodynamic Diameter ([1]; propellant HFA-134a, MCT content 0.5%): 1.6 μm | Mass Median Aerodynamic Diameter ([1]; propellant HFA-227, MCT content 0.05%): 1.5 μm | Mass Median Aerodynamic Diameter ([1]; propellant HFA-227, MCT content 0.5%): 1.7 μm | Mass Median Aerodynamic Diameter ([1]; propellant HFA-227, MCT content 1%): 2.5 μm | Mass Median Aerodynamic Diameter ([1]; propellant HFA-227, MCT content 2%): 3.1 μm | Mass Median Aerodynamic Diameter ([1]; propellant HFA-227, MCT content 5%): 4.0 μm | Mass median aerodynamic diameter (MMAD), trend ([1]; FK506 aerosol composition, addition of MCT): increased in proportion to MCT amount added | T 50% (dissolution rate of FK506) ([2]; HFA-134a, MCT content 0.5%, FK506 0.05%): 29 min | T 50% (dissolution rate of FK506) ([2]; HFA-134a, MCT content 0.5%, FK506 0.2%): 11 min | T 50% (dissolution rate of FK506) ([2]; HFA-134a, MCT content 2%, FK506 0.05%): 41 min | T 50% (dissolution rate of FK506) ([2]; HFA-134a, MCT content 2%, FK506 0.2%): 25 min | T 50% (dissolution rate of FK506) ([2]; HFA-227, MCT content 0%, FK506 0.05%): 5 min | T 50% (dissolution rate of FK506) ([2]; HFA-227, MCT content 0%, FK506 0.2%): 9 min | T 50% (dissolution rate of FK506) ([2]; HFA-227, MCT content 0.5%, FK506 0.05%): 30 min | T 50% (dissolution rate of FK506) ([2]; HFA-227, MCT content 0.5%, FK506 0.2%): 12 min | T 50% (dissolution rate of FK506) ([2]; HFA-227, MCT content 1%, FK506 0.05%): 38 min | T 50% (dissolution rate of FK506) ([2]; HFA-227, MCT content 1%, FK506 0.2%): 15 min | T 50% (dissolution rate of FK506) ([2]; HFA-227, MCT content 2%, FK506 0.05%): 43 min | T 50% (dissolution rate of FK506) ([2]; HFA-227, MCT content 2%, FK506 0.2%): 28 min | T 50% (dissolution rate of FK506) ([2]; HFA-227, MCT content 5%, FK506 0.05%): 51 min | T 50% (dissolution rate of FK506) ([2]; HFA-227, MCT content 5%, FK506 0.2%): 37 min | Release rate of FK506 from the mist particles, trend ([2]; addition of MCT): declined with addition of MCT | Solubility of FK506 in HFAs (solution or suspension) ([3]; MCT content 0.05%, FK506 content 0.05 w/v % in HFA-134a): ∘ | Solubility of FK506 in HFAs (solution or suspension) ([3]; MCT content 0.05%, FK506 content 0.05 w/v % in HFA-227): ∘ | Solubility of FK506 in HFAs (solution or suspension) ([3]; MCT content 0.05%, FK506 content 0.1 w/v % in HFA-227): — | Solubility of FK506 in HFAs (solution or suspension) ([3]; MCT content 0.05%, FK506 content 0.2 w/v % in HFA-134a): — | Solubility of FK506 in HFAs (solution or suspension) ([3]; MCT content 0.05%, FK506 content 0.2 w/v % in HFA-227): — | Solubility of FK506 in HFAs (solution or suspension) ([3]; MCT content 0.05%, FK506 content 0.5 w/v % in HFA-227): — | Solubility of FK506 in HFAs (solution or suspension) ([3]; MCT content 0.5%, FK506 content 0.05 w/v % in HFA-134a): ∘ | Solubility of FK506 in HFAs (solution or suspension) ([3]; MCT content 0.5%, FK506 content 0.05 w/v % in HFA-227): ∘ | Solubility of FK506 in HFAs (solution or suspension) ([3]; MCT content 0.5%, FK506 content 0.1 w/v % in HFA-227): ∘ | Solubility of FK506 in HFAs (solution or suspension) ([3]; MCT content 0.5%, FK506 content 0.2 w/v % in HFA-134a): — | Solubility of FK506 in HFAs (solution or suspension) ([3]; MCT content 0.5%, FK506 content 0.2 w/v % in HFA-227): — | Solubility of FK506 in HFAs (solution or suspension) ([3]; MCT content 0.5%, FK506 content 0.5 w/v % in HFA-227): — | Solubility of FK506 in HFAs (solution or suspension) ([3]; MCT content 2%, FK506 content 0.05 w/v % in HFA-134a): ∘ | Solubility of FK506 in HFAs (solution or suspension) ([3]; MCT content 2%, FK506 content 0.05 w/v % in HFA-227): ∘ | Solubility of FK506 in HFAs (solution or suspension) ([3]; MCT content 2%, FK506 content 0.1 w/v % in HFA-227): ∘ | Solubility of FK506 in HFAs (solution or suspension) ([3]; MCT content 2%, FK506 content 0.2 w/v % in HFA-134a): ∘ | Solubility of FK506 in HFAs (solution or suspension) ([3]; MCT content 2%, FK506 content 0.2 w/v % in HFA-227): ∘ | Solubility of FK506 in HFAs (solution or suspension) ([3]; MCT content 2%, FK506 content 0.5 w/v % in HFA-227): — | Solubility of FK506 in HFAs (solution or suspension) ([3]; MCT content 5%, FK506 content 0.05 w/v % in HFA-134a): ∘ | Solubility of FK506 in HFAs (solution or suspension) ([3]; MCT content 5%, FK506 content 0.05 w/v % in HFA-227): ∘ | Solubility of FK506 in HFAs (solution or suspension) ([3]; MCT content 5%, FK506 content 0.1 w/v % in HFA-227): ∘ | Solubility of FK506 in HFAs (solution or suspension) ([3]; MCT content 5%, FK506 content 0.2 w/v % in HFA-134a): ∘ | Solubility of FK506 in HFAs (solution or suspension) ([3]; MCT content 5%, FK506 content 0.2 w/v % in HFA-227): ∘ | Solubility of FK506 in HFAs (solution or suspension) ([3]; MCT content 5%, FK506 content 0.5 w/v % in HFA-227): — | Solubility of FK506 (change) ([3]; by mixing MCT into liquefied hydrofluoroalkanes): increased up

Reference: patent US6524556B2, “Aerosol compositions” (Fujisawa Pharmaceutical Co., Ltd., priority 1995, dated 2003)
